# Measured values: patent publication US20260285853A1, “COMPOUNDS AND METHODS FOR MODULATING SPLICING” (REMIX THERAPEUTICS INC., priority 2023, published 2026)
# Where two headings read alike, the source gives them in different places.
# Columns and labels:
# Format in all cases: cell-based
# [1] = test system: SH-SY5Y (human neuroblastoma) cells; assay: Cell viability, Cell Titer Glo 2.0 assay; conditions: read-out: Viability SHSY5Y.3 GI50
# Outline: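 SH-SY5Y cells were exposed to serially diluted compounds in IMDM with 10% FBS and 0.1% DMSO for 72 hours at 37° C., 5% CO2. Viability was measured by CellTiter-Glo 2.0 luminescence, with medium-only wells as blank.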
# HTT mRNA [2] = assay: Splicing RT-qPCR assay (THP), Table 2A
# MYB mRNA [3] = assay: Splicing RT-qPCR assay (THP), Table 2A
# HTT mRNA [4] = assay: Gene panel canonical junction qPCR assay, decrease in CJ mRNA, Table 3
# Outline: (§1)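 Canonical exon-junction (CJ) transcript measured by 5′ nuclease RT-qPCR, normalized to GAPDH, GUSB or PPIA and to DMSO control (2^(−ΔΔCt)). A673 or K562 cells treated 24 h at 37° C with an 11-point 3-fold dilution series, top 10 uM, DMSO ≤0.25%. IC50 from 4-parameter logistic fit of percentage CJ decrease.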
# SMN2 mRNA = assay: as above; conditions: decrease in canonical junction (CJ) mRNA, gene panel qPCR, Table 3
# Outline: as §1
# MYB mRNA [5] = assay: as above
# Outline: as §1
# [6] = Table 2A (THP), AJ mRNA increase, read-out: HTT AJ (increase in alternative junction mRNA, AC50)
# [7] = Table 2A (THP), CJ mRNA decrease, read-out: HTT CJ (decrease in canonical junction mRNA, IC50)
# [8] = Table 2A (THP), AJ mRNA increase, read-out: MYB AJ (increase in alternative junction mRNA, AC50)
# [9] = Table 2A (THP), CJ mRNA decrease, read-out: MYB CJ (decrease in canonical junction mRNA, IC50)
# [10] = decrease in canonical junction (CJ) mRNA, gene panel qPCR, Table 3
# [11] = Table 2A, THP, HTT alternative junction (AJ) mRNA, read-out: HTT AJ (AC50, increase in alternative junction mRNA)
# [12] = Table 2A, THP, HTT canonical junction (CJ) mRNA, read-out: HTT CJ (IC50, decrease in canonical junction mRNA)
# [13] = Table 2A, THP, MYB alternative junction (AJ) mRNA, read-out: MYB AJ (AC50, increase in alternative junction mRNA)
# [14] = Table 2A, THP, MYB canonical junction (CJ) mRNA, read-out: MYB CJ (IC50, decrease in canonical junction mRNA)
# [15] = decrease in CJ mRNA levels, canonical junction qPCR, gene panel
Compound,GI50 [1] [µM],AC50 (HTT mRNA [2]; [6]) [µM],IC50 (HTT mRNA [2]; [7]) [µM],AC50 (MYB mRNA [3]; [8]) [µM],IC50 (MYB mRNA [3]; [9]) [µM],IC50 (HTT mRNA [4]; [10]) [µM],IC50 (SMN2 mRNA) [µM],IC50 (MYB mRNA [5]; [10]) [µM],AC50 (HTT mRNA [2]; [11]) [µM],IC50 (HTT mRNA [2]; [12]) [µM],AC50 (MYB mRNA [3]; [13]) [µM],IC50 (MYB mRNA [3]; [14]) [µM],IC50 (HTT mRNA [4]; [15]) [µM],IC50 (MYB mRNA [5]; [15]) [µM]
"Cc1cn2cc(NC(=O)c3ccc(N4CC(CNC5CC5)C4)c4cn(C)nc34)cc(F)c2n1 [Compound 298, 4-[3-[(cyclopropylamino)-methyl]azetidin-1-yl]-N-(8-fluoro-2-methylimidazo[1,2-a]pyridin-6-yl)-2-methylindazole-7-carboxamide]",1 to 10,1 to 10,1 to 10,0.1 to 1,0.1 to 1,1 to 10,< 0.1,0.1 to 1,,,,,,
"CCNC1CCN(c2cc(F)c(C(=O)Nc3cc(F)c4nc(C)n(C)c4c3)c3nn(C)cc23)CC1 [Compound 299, 4-[4-(ethylamino)-1-piperidyl]-6-fluoro-N-(7-fluoro-2,3-dimethyl-benzimidazol-5-yl)-2-methyl-indazole-7-carboxamide]",> 10,> 10,> 10,> 10,> 10,> 10,> 10,> 10,,,,,,
"CCNC1CCN(c2ccc(C(=O)Nc3cn4cc(C)nc(CC(=O)NC)c4n3)c3nn(C)cc23)CC1 [Compound 872, 4-[4-(ethylamino)-1-piperidyl]-2-methyl-N-[6-methyl-8-[2-(methylamino)-2-oxo-ethyl]imidazo[1,2-a]pyrazin-2-yl]indazole-7-carboxamide]",> 10,,,,,,,,> 10,> 10,> 10,> 10,> 10,> 10
"CCNC1CCN(c2ccc(C(=O)Nc3cc(CC(N)=O)c4nn(C)cc4c3)c3nn(C)cc23)CC1 [Compound 873, N-[7-(2-amino-2-oxo-ethyl)-2-methyl-indazol-5-yl]-4-[4-(ethylamino)-1-piperidyl]-2-methyl-indazole-7-carboxamide]",> 10,,,,,,,,> 10,> 10,> 10,> 10,> 10,> 10
CCNC1CCN(c2ccc(C(=O)Nc3cc(CS(=O)(=O)N(C)C)c4nn(C)cc4c3)c3nn(C)cc23)CC1 [Compound 874],> 10,,,,,,,,> 10,> 10,> 10,> 10,> 10,> 10
CCNC1CCN(c2ccc(C(=O)Nc3cc(CCC(N)=O)c4nn(C)cc4c3)c3nn(C)cc23)CC1 [Compound 875],> 10,,,,,,,,> 10,> 10,> 10,> 10,> 10,> 10
CCNC1CCN(c2ccc(C(=O)Nc3cc(CCC(=O)NC)c4nn(C)cc4c3)c3nn(C)cc23)CC1 [Compound 876],1 to 10,,,,,,,,1 to 10,1 to 10,1 to 10,1 to 10,1 to 10,1 to 10
CCNC1CCN(c2ccc(C(=O)Nc3cc(CCC(=O)N(C)C)c4nn(C)cc4c3)c3nn(C)cc23)CC1 [Compound 877],> 10,,,,,,,,> 10,> 10,> 10,> 10,> 10,> 10
CCNC1CCN(c2ccc(C(=O)Nc3cc(CCc4nnc[nH]4)c4nn(C)cc4c3)c3nn(C)cc23)CC1 [Compound 878],> 10,,,,,,,,> 10,> 10,> 10,> 10,> 10,> 10
Cn1cc2cc(NC(=O)c3ccc(N4CCC(NC5CC5)CC4)c4cn(C)nc34)cc(CCO)c2n1 [Compound 879],1 to 10,,,,,,,,> 10,> 10,1 to 10,1 to 10,> 10,1 to 10
Cn1cc2cc(NC(=O)c3ccc(N4CCC(NC5CC5)CC4)c4cn(C)nc34)cc(CNc3ncco3)c2n1 [Compound 880],1 to 10,,,,,,,,> 10,> 10,1 to 10,1 to 10,> 10,1 to 10
Cn1cc2cc(NC(=O)c3ccc(N4CCC(NC5CC5)CC4)c4cn(C)nc34)cc(CNc3nccs3)c2n1 [Compound 881],1 to 10,,,,,,,,> 10,1 to 10,0.1 to 1,1 to 10,1 to 10,1 to 10
Cn1cc2cc(NC(=O)c3ccc(N4CCC(NC5CC5)CC4)c4cn(C)nc34)cc(CNc3cncs3)c2n1 [Compound 882],1 to 10,,,,,,,,> 10,> 10,0.1 to 1,0.1 to 1,> 10,0.1 to 1
Cn1cc2cc(NC(=O)c3ccc(N4CCC(NC5CC5)CC4)c4cn(C)nc34)cc(CNc3cn[nH]c3)c2n1 [Compound 883],> 10,,,,,,,,> 10,> 10,1 to 10,1 to 10,> 10,1 to 10
CCNC1CCN(c2ccc(C(=O)Nc3cn4cc(C)nc(CNS(C)(=O)=O)c4n3)c3nn(C)cc23)CC1 [Compound 884],> 10,,,,,,,,> 10,> 10,1 to 10,1 to 10,> 10,1 to 10
"Cc1cn2cc(NC(=O)c3ccc(N4CC5CCC(C4)N5)c4cn(C)nc34)nc2c(CNS(C)(=O)=O)n1 [Compound 885, 4-(3,8-diazabicyclo[3.2.1]octan-3-yl)-N-[8-(methanesulfonamidomethyl)-6-methyl-imidazo[1,2-a]pyrazin-2-yl]-2-methyl-indazole-7-carboxamide]",1 to 10,,,,,,,,1 to 10,1 to 10,1 to 10,1 to 10,1 to 10,1 to 10
